Results taken from article PMC9944328 (Nature Communications, 2023).

Legend:
Assay in all cases: Bystander BRET endosomal trafficking (β-arrestin 1-Nluc, FYVE-mVenus), HEK293 (SSTR2 mutants);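 further: Read-out is the BRET ratio between Nluc-fused β-arrestin 1 and the early endosome marker FYVE-mVenus, measured after ligand addition with coelenterazine h as substrate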;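 on Bottom: percent of maximal wild-type response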;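 on Span: percent of maximal wild-type response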;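 on Top: percent of maximal wild-type response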
SSTR2 mutants [1] = target: SSTR2 mutants (Homo sapiens, UniProt P30874, F265A); conditions: HEK293
Sequence of SSTR2 mutants (Homo sapiens, UniProt P30874, F265A) (P30874 whole entry F265A): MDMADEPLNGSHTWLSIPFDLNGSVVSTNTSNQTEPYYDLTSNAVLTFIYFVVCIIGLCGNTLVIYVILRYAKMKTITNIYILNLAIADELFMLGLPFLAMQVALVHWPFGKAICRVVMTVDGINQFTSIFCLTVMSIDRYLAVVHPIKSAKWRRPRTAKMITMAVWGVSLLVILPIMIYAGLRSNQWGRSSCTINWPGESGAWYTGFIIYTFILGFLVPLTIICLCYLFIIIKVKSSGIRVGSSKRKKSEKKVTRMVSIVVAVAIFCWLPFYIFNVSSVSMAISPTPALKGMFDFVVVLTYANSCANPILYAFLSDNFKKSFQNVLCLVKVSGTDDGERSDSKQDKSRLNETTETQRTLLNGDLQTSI

SSTR2 mutants [2] = target: SSTR2 mutants (Homo sapiens, UniProt P30874, I130A); conditions: HEK293
Sequence of SSTR2 mutants (Homo sapiens, UniProt P30874, I130A) (P30874 whole entry I130A): as the sequence (P30874 whole entry F265A) above, with I130A, A265F counted along it

SSTR2 mutants [3] = target: SSTR2 mutants (Homo sapiens, UniProt P30874, I284A); conditions: for Bottom: Best-fit values
Sequence of SSTR2 mutants (Homo sapiens, UniProt P30874, I284A) (P30874 whole entry I284A): as the sequence (P30874 whole entry F265A) above, with A265F, I284A counted along it

SSTR2 mutants [4] = target: SSTR2 mutants (Homo sapiens, UniProt P30874, K291A); conditions: for Bottom: best-fit
Sequence of SSTR2 mutants (Homo sapiens, UniProt P30874, K291A) (P30874 whole entry K291A): as the sequence (P30874 whole entry F265A) above, with A265F, K291A counted along it

SSTR2 mutants [5] = target: SSTR2 mutants (Homo sapiens, UniProt P30874, P220A); conditions: for Bottom: Best-fit values
Sequence of SSTR2 mutants (Homo sapiens, UniProt P30874, P220A) (P30874 whole entry P220A): as the sequence (P30874 whole entry F265A) above, with P220A, A265F counted along it

SSTR2 mutants [6] = target: SSTR2 mutants (Homo sapiens, UniProt P30874, R140A); conditions: Best-fit values
Sequence of SSTR2 mutants (Homo sapiens, UniProt P30874, R140A) (P30874 whole entry R140A): as the sequence (P30874 whole entry F265A) above, with R140A, A265F counted along it

SSTR2 mutants [7] = target: SSTR2 mutants (Homo sapiens, UniProt P30874, W269A); conditions: for Bottom: Best-fit values
Sequence of SSTR2 mutants (Homo sapiens, UniProt P30874, W269A) (P30874 whole entry W269A): as the sequence (P30874 whole entry F265A) above, with A265F, W269A counted along it

SSTR2 mutants [8] = target: SSTR2 mutants (Homo sapiens, UniProt P30874, Y312A); conditions: Best-fit values
Sequence of SSTR2 mutants (Homo sapiens, UniProt P30874, Y312A) (P30874 whole entry Y312A): as the sequence (P30874 whole entry F265A) above, with A265F, Y312A counted along it

SSTR2 mutants [9] = system: SSTR2 mutants

Structure (SMILES): C[C@@H](O)[C@@H]1NC(=O)[C@H](CCCCN)NC(=O)[C@@H](Cc2c[nH]c3ccccc23)NC(=O)[C@H](Cc2ccccc2)NC(=O)[C@@H](NC(=O)[C@H](N)Cc2ccccc2)CSSC[C@@H](C(=O)N[C@H](CO)[C@@H](C)O)NC1=O [octreotide]
- Emax (SSTR2 mutants [1]): 56.1 ± 4.14%
- Emax (SSTR2 mutants [2]): 68.2 ± 4.05%
- Bottom (SSTR2 mutants [3]; I284A-1): 1.002
- Bottom (SSTR2 mutants [3]; I284A-2): 9.91
- Emax (SSTR2 mutants [3]; HEK293): 94.8 ± 4.62%
- Emax (SSTR2 mutants [4]; HEK293): 68 ± 8.22%
- Bottom (SSTR2 mutants [4]; K291A-1, run 1): -10.2
- Bottom (SSTR2 mutants [4]; K291A-2, run 2): 2.053
- Bottom (SSTR2 mutants [5]; P220A-1): -11.09
- Bottom (SSTR2 mutants [5]; P220A-2): 6.493
- Emax (SSTR2 mutants [5]; HEK293): 20.3 ± 8.01%
- Bottom (SSTR2 mutants [6]; R140A-1): 0.00472
- Bottom (SSTR2 mutants [6]; R140A-2): -1.087
- Bottom (SSTR2 mutants [7]; W269A-1): -0.7468
- Bottom (SSTR2 mutants [7]; W269A-2): -3.268
- Emax (SSTR2 mutants [7]; HEK293): 14.5 ± 3.19%
- Bottom (SSTR2 mutants [8]; Y312A-1): 0.5637
- Bottom (SSTR2 mutants [8]; Y312A-2): -0.6682
- LogEC50 (SSTR2 mutants [9]; Best-fit values, I284A-1): -6.559
- Top (SSTR2 mutants [9]; Best-fit values, I284A-1): 94.85
- LogEC50 (SSTR2 mutants [9]; Best-fit values, I284A-2): -7.171
- Top (SSTR2 mutants [9]; Best-fit values, I284A-2): 92.19
- LogEC50 (SSTR2 mutants [9]; Best-fit values, P220A-1): -6.023
- Span (SSTR2 mutants [9]; Best-fit values, P220A-1): 31.36
- Top (SSTR2 mutants [9]; Best-fit values, P220A-1): 20.27
- LogEC50 (SSTR2 mutants [9]; Best-fit values, P220A-2): -7.589
- Span (SSTR2 mutants [9]; Best-fit values, P220A-2): 32.52
- Top (SSTR2 mutants [9]; Best-fit values, P220A-2): 39.01
- LogEC50 (SSTR2 mutants [9]; Best-fit values, R140A-1): -8.238
- Span (SSTR2 mutants [9]; Best-fit values, R140A-1): 48.38
- Top (SSTR2 mutants [9]; Best-fit values, R140A-1): 48.39
- LogEC50 (SSTR2 mutants [9]; Best-fit values, R140A-2): -8.282
- Span (SSTR2 mutants [9]; Best-fit values, R140A-2): 47.34
- Top (SSTR2 mutants [9]; Best-fit values, R140A-2): 46.25
- EC50 (SSTR2 mutants [9]; Best-fit values, W269A-1): 0.642 nM
- LogEC50 (SSTR2 mutants [9]; Best-fit values, W269A-1): -9.192
- Span (SSTR2 mutants [9]; Best-fit values, W269A-1): 18.76
- Top (SSTR2 mutants [9]; Best-fit values, W269A-1): 18.02
- EC50 (SSTR2 mutants [9]; Best-fit values, W269A-2): 0.132 nM
- LogEC50 (SSTR2 mutants [9]; Best-fit values, W269A-2): -9.88
- Span (SSTR2 mutants [9]; Best-fit values, W269A-2): 17.57
- Top (SSTR2 mutants [9]; Best-fit values, W269A-2): 14.3
- EC50 (SSTR2 mutants [9]; Best-fit values, Y312A-1): 10.2 nM
- LogEC50 (SSTR2 mutants [9]; Best-fit values, Y312A-1): -7.991
- Span (SSTR2 mutants [9]; Best-fit values, Y312A-1): 45.08
- Top (SSTR2 mutants [9]; Best-fit values, Y312A-1): 45.64
- EC50 (SSTR2 mutants [9]; Best-fit values, Y312A-2): 10.3 nM
- LogEC50 (SSTR2 mutants [9]; Best-fit values, Y312A-2): -7.988
- Span (SSTR2 mutants [9]; Best-fit values, Y312A-2): 40.73
- Top (SSTR2 mutants [9]; Best-fit values, Y312A-2): 40.06
- Internalization of microswitch mutants (SSTR2 mutants [9]; alanine substitution of microswitch residues): reduced receptor internalization
- EC50 (SSTR2 mutants [9]; best-fit, I284A-1, run 1): 276 nM
- Span (SSTR2 mutants [9]; best-fit, I284A-1, run 1): 93.85
- EC50 (SSTR2 mutants [9]; best-fit, I284A-2, run 2): 67.5 nM
- Span (SSTR2 mutants [9]; best-fit, I284A-2, run 2): 82.28
- EC50 (SSTR2 mutants [9]; best-fit, K291A-1, run 1): 1610 nM
- LogEC50 (SSTR2 mutants [9]; best-fit, K291A-1, run 1): -5.793
- Span (SSTR2 mutants [9]; best-fit, K291A-1, run 1): 78.24
- Top (SSTR2 mutants [9]; best-fit, K291A-1, run 1): 68.05
- EC50 (SSTR2 mutants [9]; best-fit, K291A-2, run 2): 615 nM
- LogEC50 (SSTR2 mutants [9]; best-fit, K291A-2, run 2): -6.211
- Span (SSTR2 mutants [9]; best-fit, K291A-2, run 2): 78.94
- Top (SSTR2 mutants [9]; best-fit, K291A-2, run 2): 80.99
